Laboratory results as given in US12077503B2, “Substituted cyclic amides and their use as herbicides” (FMC CORPORATION, priority 2015, dated 2024).

Tests used:
Format in all cases: in vivo
[1] = test system: ragweed (common ragweed, Ambrosia elatior); experiment: Test A preemergence; details: for Ragweed plant response rating (0 to 100 scale, 0 is no effect, 100 is complete control): visual injury approx. 10 d
Outline: (§1)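 Treatment is preemergence as a directed soil spray after planting, or postemergence at the one- to two-leaf stage, with test chemical in a non-phytotoxic solvent mixture plus surfactant. Plants stay in the greenhouse about 10 d before visual injury scoring on a 0 to 100 scale versus untreated controls.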

[2] = test system: barnyardgrass (Echinochloa crus-galli); experiment: Test A preemergence; details: for Barnyardgrass plant response rating (0 to 100 scale, 0 is no effect, 100 is complete control): visual injury approx. 10 d
Outline: as §1

Kochia (Kochia scoparia) [3] = experiment: Test A preemergence; details: for Kochia plant response rating (0 to 100 scale, 0 is no effect, 100 is complete control): visual injury approx. 10 d
Outline: as §1

[4] = test system: pigweed (Amaranthus retroflexus); experiment: Test A preemergence; details: for Pigweed plant response rating (0 to 100 scale, 0 is no effect, 100 is complete control): visual injury approx. 10 d
[5] = test system: giant foxtail (Setaria faberii); experiment: Test A preemergence; details: for Foxtail, Giant plant response rating (0 to 100 scale, 0 is no effect, 100 is complete control): visual injury approx. 10 d
Outline: as §1

[6] = test system: ryegrass, Italian (Italian ryegrass, Lolium multiflorum); experiment: Test A preemergence; details: for Ryegrass, Italian plant response rating (0 to 100 scale, 0 is no effect, 100 is complete control): visual injury approx. 10 d
Outline: as §1

[7] = test system: ragweed (common ragweed, Ambrosia elatior); experiment: Test A postemergence; details: for Ragweed plant response rating: visual injury rating on 0 to 100 scale (0 no effect, 100 complete control)
Outline: as §1

[8] = test system: barnyardgrass (Echinochloa crus-galli); experiment: Test A postemergence; details: for Barnyardgrass plant response rating: visual injury rating on 0 to 100 scale (0 no effect, 100 complete control)
Outline: as §1

corn (Zea mays) = experiment: Test A postemergence; details: for Corn plant response rating: visual injury rating on 0 to 100 scale (0 no effect, 100 complete control)
Outline: as §1

[9] = test system: Galium (catchweed bedstraw, Galium aparine); experiment: Test A postemergence; details: for Galium plant response rating: visual injury rating on 0 to 100 scale (0 no effect, 100 complete control)
Outline: as §1

Kochia (Kochia scoparia) [10] = experiment: Test A postemergence; details: for Kochia plant response rating: visual injury rating on 0 to 100 scale (0 no effect, 100 complete control)
Outline: as §1

[11] = test system: wheat (Triticum aestivum); experiment: Test A postemergence; details: for Wheat plant response rating: visual injury rating on 0 to 100 scale (0 no effect, 100 complete control)
Outline: as §1

[12] = test system: pigweed (Amaranthus retroflexus); experiment: Test A postemergence; details: for Pigweed plant response rating: visual injury rating on 0 to 100 scale (0 no effect, 100 complete control)
Outline: as §1

[13] = test system: blackgrass (Alopecurus myosuroides); experiment: Test A postemergence; details: for Blackgrass plant response rating: visual injury rating on 0 to 100 scale (0 no effect, 100 complete control)
Outline: as §1

[14] = test system: giant foxtail (Setaria faberii); experiment: Test A postemergence; details: for Foxtail, Giant plant response rating: visual injury rating on 0 to 100 scale (0 no effect, 100 complete control)
Outline: as §1

[15] = test system: ryegrass, Italian (Italian ryegrass, Lolium multiflorum); experiment: Test A postemergence; details: for Ryegrass, Italian plant response rating: visual injury rating on 0 to 100 scale (0 no effect, 100 complete control)
Outline: as §1

[16] = test system: sedge, umbrella (small-flower umbrella sedge, Cyperus difformis); experiment: Test B flooded paddy test; details: Flood, 250 g ai/ha; 0 to 100 scale where 0 is no effect and 100 is complete control; 13 to 15 d
Outline: (§2)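 Visual ratings (0 none to 100 complete control) are relative to untreated plants, taken 13–15 d after treatment in a greenhouse. Test material went straight into floodwater standing 3 cm above the soil, kept constant, on plants at the 2-leaf stage.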

[17] = test system: barnyardgrass (Echinochloa crus-galli); experiment: Test B flooded paddy test; details: Flood, 250 g ai/ha; 0 to 100 scale where 0 is no effect and 100 is complete control; 13 to 15 d
Outline: as §2

[18] = test system: ducksalad (Heteranthera limosa); experiment: Test B flooded paddy test; details: Flood, 250 g ai/ha; 0 to 100 scale where 0 is no effect and 100 is complete control; 13 to 15 d
Outline: as §2

rice (Oryra sativa) = experiment: Test B flooded paddy test; details: Flood, 250 g ai/ha; 0 to 100 scale where 0 is no effect and 100 is complete control; 13 to 15 d
Outline: as §2

[19] = 125 g ai/ha, Preemergence, visual injury after approximately 10 d, 0 to 100 scale where 0 is no effect and 100 is complete control
[20] = 125 g ai/ha, postemergence, approx. 10 d
[21] = Postemergence, 500 g ai/ha, 0 to 100 scale where 0 is no effect and 100 is complete control
[22] = 500 g ai/ha, preemergence, 0 to 100 scale, 0 = no effect, 100 = complete control
[23] = 125 g ai/ha, postemergence, visual rating after approx. 10 d, 0 to 100 scale (0 no effect, 100 complete control)
[24] = 500 g ai/ha, postemergence, visual injury, 0 to 100 scale (0 no effect, 100 complete control), approx. 10 d
[25] = 125 g ai/ha, preemergence, 0 to 100 scale (0 no effect, 100 complete control)
[26] = 500 g ai/ha, postemergence, 0 to 100 scale, 0 no effect, 100 complete control

COCc1cccc(C2CNC(=O)C2C(=O)Nc2ccccc2F)c1 (stereo not drawn) [Compound 496]
0: Plant response rating, Ragweed [1, 19] | Ragweed plant response rating (0 to 100 scale, 0 is no effect, 100 is complete control) ([1]; Preemergence, 500 g ai/ha) | Plant response rating, Kochia (Kochia (Kochia scoparia) [3]; [19]) | Plant response rating, Pigweed [4, 19] | Pigweed plant response rating (0 to 100 scale, 0 is no effect, 100 is complete control) ([4]; Preemergence, 500 g ai/ha) | Plant response rating, Ryegrass, Italian [6, 19] | Ryegrass, Italian plant response rating (0 to 100 scale, 0 is no effect, 100 is complete control) ([6]; Preemergence, 500 g ai/ha) | Ragweed plant response rating [7, 20] | Plant response rating, Ragweed [7, 21] | Corn plant response rating (corn (Zea mays); [20]) | Plant response rating, Corn (corn (Zea mays); [21]) | Galium plant response rating [9, 20] | Kochia plant response rating (Kochia (Kochia scoparia) [10]; [20]) | Plant response rating, Kochia (Kochia (Kochia scoparia) [10]; [21]) | Wheat plant response rating [11, 20] | Plant response rating, Wheat [11, 21] | Pigweed plant response rating [12, 20] | Plant response rating, Pigweed [12, 21] | Blackgrass plant response rating [13, 20] | Plant response rating, Blackgrass [13, 21] | Ryegrass, Italian plant response rating [15, 20] | Plant response rating, Ryegrass, Italian [15, 21] | Plant response rating, Sedge, Umbrella [16] | Plant response rating, Rice (rice (Oryra sativa))
50: Plant response rating, Foxtail, Giant [14, 21]
60: Plant response rating, Barnyardgrass [2, 19] | Barnyardgrass plant response rating [8, 20] | Plant response rating, Barnyardgrass [17]
30: Plant response rating, Foxtail, Giant [5, 19] | Plant response rating, Galium [9, 21]
85: Plant response rating, Ducksalad [18]
80: Plant response rating, Barnyardgrass [8, 21]
90: Barnyardgrass plant response rating (0 to 100 scale, 0 is no effect, 100 is complete control) ([2]; Preemergence, 500 g ai/ha) | Foxtail, Giant plant response rating (0 to 100 scale, 0 is no effect, 100 is complete control) ([5]; Preemergence, 500 g ai/ha)
20: Foxtail, Giant plant response rating [14, 20]
40: Kochia plant response rating (0 to 100 scale, 0 is no effect, 100 is complete control) (Kochia (Kochia scoparia) [3]; Preemergence, 500 g ai/ha)

Cc1ccc(C2CNC(=O)C2C(=O)Nc2ccccc2F)cc1C(F)(F)F (racemic) [Compound 654]
70: Plant response rating, Pigweed [4, 22] | Plant response rating, Corn (corn (Zea mays); [24]) | Plant response rating, Foxtail, Giant [14, 23]
30: Plant response rating, Ragweed [1, 22] | Plant response rating, Blackgrass [13, 23] | Plant response rating, Ryegrass, Italian [15, 23]
50: Plant response rating, Kochia (Kochia (Kochia scoparia) [10]; [24]) | Plant response rating, Blackgrass [13, 24]
0: Plant response rating, Ragweed [1, 19] | Plant response rating, Kochia (Kochia (Kochia scoparia) [3]; [19]) | Plant response rating, Ragweed [7, 23] | Plant response rating, Wheat [11, 23] | Plant response rating, Pigweed [12, 23] | Plant response rating, Sedge, Umbrella [16] | Plant response rating, Rice (rice (Oryra sativa))
60: Plant response rating, Galium [9, 24] | Plant response rating, Ryegrass, Italian [15, 24]
35: Plant response rating, Barnyardgrass [17]
40: Plant response rating, Kochia (Kochia (Kochia scoparia) [3]; [22]) | Plant response rating, Pigweed [4, 19] | Plant response rating, Ryegrass, Italian [6, 19] | Plant response rating, Galium [9, 23] | Plant response rating, Wheat [11, 24]
20: Plant response rating, Ragweed [7, 24] | Plant response rating, Corn (corn (Zea mays); [23]) | Plant response rating, Kochia (Kochia (Kochia scoparia) [10]; [23]) | Plant response rating, Pigweed [12, 24]
80: Plant response rating, Ryegrass, Italian [6, 22]
90: Plant response rating, Barnyardgrass [2, 19] | Plant response rating, Barnyardgrass [2, 22] | Plant response rating, Foxtail, Giant [5, 19] | Plant response rating, Foxtail, Giant [5, 22] | Plant response rating, Barnyardgrass [8, 23] | Plant response rating, Barnyardgrass [8, 24] | Plant response rating, Foxtail, Giant [14, 24] | Plant response rating, Ducksalad [18]

Cc1ccc(C2CNC(=O)C2C(=O)Nc2ccc(F)c(C)c2F)cc1F (stereo not drawn) [Compound 462]
60: Foxtail, Giant plant response rating [14, 20]
30: Plant response rating, Kochia (Kochia (Kochia scoparia) [3]; [25])
0: Plant response rating, Pigweed [4, 25] | Pigweed plant response rating (0 to 100 scale, 0 is no effect, 100 is complete control) ([4]; Preemergence, 500 g ai/ha) | Plant response rating, Ryegrass, Italian [6, 25] | Ryegrass, Italian plant response rating (0 to 100 scale, 0 is no effect, 100 is complete control) ([6]; Preemergence, 500 g ai/ha) | Ragweed plant response rating [7, 20] | Plant response rating, Ragweed [7, 26] | Corn plant response rating (corn (Zea mays); [20]) | Plant response rating, Corn (corn (Zea mays); [26]) | Galium plant response rating [9, 20] | Kochia plant response rating (Kochia (Kochia scoparia) [10]; [20]) | Plant response rating, Kochia (Kochia (Kochia scoparia) [10]; [26]) | Wheat plant response rating [11, 20] | Plant response rating, Wheat [11, 26] | Pigweed plant response rating [12, 20] | Plant response rating, Pigweed [12, 26] | Ryegrass, Italian plant response rating [15, 20] | Plant response rating, Ryegrass, Italian [15, 26] | Plant response rating, Sedge, Umbrella [16] | Plant response rating, Rice (rice (Oryra sativa))
85: Plant response rating, Ducksalad [18]
50: Ragweed plant response rating (0 to 100 scale, 0 is no effect, 100 is complete control) ([1]; Preemergence, 500 g ai/ha)
20: Blackgrass plant response rating [13, 20]
70: Kochia plant response rating (0 to 100 scale, 0 is no effect, 100 is complete control) (Kochia (Kochia scoparia) [3]; Preemergence, 500 g ai/ha) | Barnyardgrass plant response rating [8, 20] | Plant response rating, Foxtail, Giant [14, 26]
80: Plant response rating, Barnyardgrass [2, 25] | Plant response rating, Foxtail, Giant [5, 25] | Plant response rating, Barnyardgrass [8, 26]
90: Barnyardgrass plant response rating (0 to 100 scale, 0 is no effect, 100 is complete control) ([2]; Preemergence, 500 g ai/ha) | Foxtail, Giant plant response rating (0 to 100 scale, 0 is no effect, 100 is complete control) ([5]; Preemergence, 500 g ai/ha)
10: Plant response rating, Ragweed [1, 25] | Plant response rating, Galium [9, 26]
40: Plant response rating, Blackgrass [13, 26] | Plant response rating, Barnyardgrass [17]
